The results in this text go back to JP2014074001A, “抗精神病剤” (KONAN MEDICAL CO Ltd, priority 2012, dated 2014).

Assay [1] concerns fasting blood glucose [空腹時血糖値]. The assay is described as follows: Example 1: fasting blood glucose in high-fat-diet ICR mice, olanzapine and β-glucan. The assay is classed as in vivo, mouse. The conditions noted are these: male ICR mice, 4 weeks, 16 h fast, tail vein, olanzapine 3 mg/kg/day p.o. and/or β-glucan 5 v/v% in drinking water, mean ± SD, high-fat control 84.4±14.65, normal diet control 72.6±10.49.

The test system of assay [2] is fasting blood glucose [空腹時血糖値]. The assay is described as follows: Example 2: fasting blood glucose in high-fat-diet ICR mice, clozapine and β-glucan. The assay is classed as in vivo, mouse. To be noted: male ICR mice, 4 weeks, 16 h fast, tail vein, clozapine 5 mg/kg/day p.o. with or without β-glucan 5 v/v% in drinking water.

Take `Cc1cc2c(s1)Nc1ccccc1N=C2N1CCN(C)CC1` [オランザピン]: the “fasting blood glucose, mean” value in assay [1] came to 124.8 ± 16.44 mg/dL.

On to `CN1CCN(C2=Nc3cc(Cl)ccc3Nc3ccccc32)CC1` [クロザピン], for which the fasting blood glucose in assay [2] was found to be 124.0 ± 8.91 mg/dL.
